Values of other authors in US20050165089A1, “Compounds, compositions and methods” (priority 2003, published 2005).

tested on: A549 cells

Structure (SMILES) | GI50 [nM]
O=c1[nH]cc(F)c(=O)[nH]1 [5-fluorouracil] | 1000
COc1cccc2c1C(=O)c1c(O)c3c(c(O)c1C2=O)C[C@@](O)(C(=O)CO)C[C@@H]3O[C@H]1C[C@H](N)[C@H](O)[C@H](C)O1 [doxorubicin] | 63
NC(=O)NO [hydroxyurea] | 500000
CC(=O)O[C@H]1C(=O)[C@@]2(C)[C@H]([C@H](OC(=O)c3ccccc3)[C@]3(O)C[C@H](OC(=O)[C@H](O)[C@@H](NC(=O)c4ccccc4)c4ccccc4)C(C)=C1C3(C)C)[C@]1(OC(C)=O)CO[C@@H]1C[C@@H]2O [paclitaxel] | 4
